{"source": "paper PMC12051620", "about": "“Molecular basis underlying the specificity of an antagonist AA92593 for mammalian melanopsins” (The Journal of Biological Chemistry, 2025)", "key": {"[1]": {"test_system": "chicken Opn4-1 C94^2.61F/T188^ECL2S/A269^6.52S mutant", "assay": "GsX GloSensor assay with Gsα/q11", "assay_type": "cell-based", "settings": "16.7 μM AA92593, COS-1 cells", "from_the_text": "(§1) The GsX GloSensor assay using Gsα/q11 of Xenopus Opn4x and chicken Opn4-1 detected the light-dependent Gq activation in both non-mammalian-type melanopsins (Fig. 6, A and D). […] The ineffectiveness of AA92593 is consistent with the fact that Phe-94^2.61, Ser-188^ECL2, and Ser-269^6.52 are not conserved among non-mammalian-type melanopsins (Figs. 2A, S2 and S3). If these three residues are important for the antagonistic effect against melanopsins, the introduction of Phe-94^2.61/Ser-188^ECL2/Ser-269^6.52 into the non-mammalian-type melanopsins would make them susceptible to AA92593. As expected, the substitutions of C94^2.61F/T188S^ECL2/A269^6.52S in Xenopus Opn4x and chicken Opn4-1 increased their sensitivity to AA92593 by ∼49% and ∼22%, respectively (Fig. 6, B and E, G–I). […]\n(§2) For GloSensor assay, opsins, GloSensor assay sensor (coded by pGlo-22F), and NanoBiT-tagged G proteins were transiently expressed in COS-1 cells (kindly provided from Dr David Farrens, Oregon Health and Science University) using PEI as described previously ([24], [52]). […] For GFP-fluorescence microscopy, a 35-mm cell culture dish (IWAKI) was transfected with 2 μg melanopsin-GFP plasmid and 8 μg PEI in 400 μl Opti-mem and 1.2 ml D-MEM. […]"}, "[2]": {"test_system": "Xenopus Opn4x C94^2.61F/T188^ECL2S/A269^6.52S mutant", "assay": "GsX GloSensor assay with Gsα/q11", "assay_type": "cell-based", "settings": "16.7 μM AA92593, COS-1 cells", "from_the_text": "as §1, §2"}}, "data": [{"compound": "COc1ccc(S(=O)(=O)N2CCCCC2)cc1C", "note": "[AA92593]", "values": [{"measurement": "increase in sensitivity to AA92593 vs WT", "setting": "[1]", "result": "~22", "unit": "%"}, {"measurement": "increase in sensitivity to AA92593 vs WT", "setting": "[2]", "result": "~49", "unit": "%"}]}]}
